{
  "source": "patent US20100260675A1",
  "about": "“Oxytocin Receptor Antagonists and Their Use for the Treatment of Pulmonary Related Diseases” (priority 2004, published 2010)",
  "key": {"[1]": {"test_system": "Oxytocin Receptor (OXTR) mRNA in primary human airway smooth muscle cells", "experiment": "Real Time PCR analysis of oxytocin receptor mRNA in cytokine-stimulated primary human airway smooth muscle cells", "assay_type": "cell-based", "conditions": "for level of OXTR mRNA normalized to 18S mRNA and relative to untreated control (0 hour timepoint): primary HASMC from normal donors, 50 ng/ml; for induced expression of the Oxytocin Receptor normalized to 18S and relative to untreated control (0 hour timepoint): primary HASMC from two normal donors, 10 ng/ml", "protocol": "In order to confirm the microarray finding by an independent means, Real Time PCR technology was employed. Primary human airway smooth muscle cells from “normal” donors were cultured with IL-13 or a naturally occurring mutant form IL-13R130Q (associated with high serum IgE levels) for 0, 6 hours or 18 hours at 50 ng/ml after allowing the cell to rest for 24 hours. Total RNA was isolated, reverse transcribed and used in Real Time PCR analysis for oxytocin receptor using the Applied Biosystems Gene Expression Assay (ID number Hs00168573_m1) on the ABI PRISM® 7900HT Sequence Detection System. At 6 hours, the level of OXTR mRNA normalized to 18S mRNA and relative to untreated control (i.e., 0 hour time point) was 1.95 (Std Dev. 0.41) when cells were stimulated with WT IL-13 and 1.79 (Std Dev. 0.22) when stimulated with R130Q. At 18 hours, the level of OXTR mRNA normalized to 18S mRNA and relative to untreated control (i.e., 0 hour timepoint) was 2.02 (Std Dev. 0.42) when the cells were stimulated with WT IL-13 and 3.58 (Std Dev. 0.74) when stimulated with R130Q.\nPrimary human airway smooth muscle cells from two “normal” donors were cultured with tumor necrosis factor alpha (TNFα) for 0, 6 hours or 18 hours at 10 ng/ml after resting the cells for 24 hours. Total RNA was isolated, reverse transcribed and used in Real Time PCR analysis for the Oxytocin Receptor. TNFα induced the expression of the Oxytocin Receptor by 4.88 (Std Dev. 1.13) at 6 hours and 7.06 (Std. Dev. 1.42) at the 18-hour time point normalized to 18S and relative to untreated control (i.e., 0 hour timepoint)."}, "[2]": {"biological_target": "T1, Oxytocin Receptor on human airway smooth muscle cells (HASMC) (Homo sapiens, UniProt P30559)", "T1 construct": "the Oxytocin Receptor expressed on the surface of human airway smooth muscle cells is functional; endogenous in cells; host or cells: primary human airway smooth muscle cells (HASMC)", "T1 sequence (P30559 1-389)": "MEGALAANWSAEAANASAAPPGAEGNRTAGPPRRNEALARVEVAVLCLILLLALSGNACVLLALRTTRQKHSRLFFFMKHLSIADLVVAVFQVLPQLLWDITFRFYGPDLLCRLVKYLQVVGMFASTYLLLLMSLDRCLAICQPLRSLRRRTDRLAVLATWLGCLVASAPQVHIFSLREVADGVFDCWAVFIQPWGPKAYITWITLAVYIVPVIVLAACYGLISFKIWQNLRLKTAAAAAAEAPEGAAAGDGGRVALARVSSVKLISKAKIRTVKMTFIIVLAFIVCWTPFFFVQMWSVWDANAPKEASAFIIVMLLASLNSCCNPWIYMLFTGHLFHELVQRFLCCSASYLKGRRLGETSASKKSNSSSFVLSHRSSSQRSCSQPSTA", "experiment": "Calcium influx in human airway smooth muscle cells after addition of oxytocin", "assay_type": "cell-based", "conditions": "FIG. 4", "protocol": "In order to determine whether the Oxytocin Receptor expressed on the surface of human airway smooth muscle cells is functional, the amount of influx of calcium was measured. HASMC were serum starved and then either unstimulated or stimulated with IL-13 (50 ng/ml) for 24 hours. The amount of calcium that mobilized Into the cells was measured after addition of oxytocin (100 nM or 500 nM)."}, "[3]": {"test_system": "Oxytocin Receptor mRNA in trachea", "experiment": "Oxytocin Receptor RNA expression in trachea, in vivo model of acute asthma (Real Time PCR)", "conditions": "mice immunized i.p. day 1 and 8, challenged intranasally days 22-24, trachea day 25", "protocol": "The RNA expression of Oxytocin Receptor in an in vivo model of acute asthma was tested. The mice were immunized with ovalbumin intraperitoneal on day 1 and day 8 and then challenged intranasally on days 22, 23 and 24. On day 25, the mice were euthanized. The trachea were extracted for RNA isolation and used in Real Time PCR analysis for Oxytocin Receptor."}},
  "data": [
    {"molecule": "IL-13: wild-type interleukin 13, Th2 derived cytokine used to stimulate airway smooth muscle cells", "values": [
      {"measurement": "level of OXTR mRNA normalized to 18S mRNA and relative to untreated control (0 hour timepoint)", "setting": "[1]; 6 hours", "value": "1.95 (Std Dev. 0.41)"},
      {"measurement": "level of OXTR mRNA normalized to 18S mRNA and relative to untreated control (0 hour timepoint)", "setting": "[1]; 18 hours", "value": "2.02 (Std Dev. 0.42)"},
      {"measurement": "effect on oxytocin-induced calcium influx in HASMC", "setting": "[2]; IL-13 50 ng/ml for 24 hours, at low concentrations of oxytocin", "value": "further enhances calcium influx"}
    ]},
    {"molecule": "TNFα", "values": [
      {"measurement": "induced expression of the Oxytocin Receptor normalized to 18S and relative to untreated control (0 hour timepoint)", "setting": "[1]; 18-hour time point", "value": "7.06 (Std. Dev. 1.42)"},
      {"measurement": "induced expression of the Oxytocin Receptor normalized to 18S and relative to untreated control (0 hour timepoint)", "setting": "[1]; 6 hours", "value": "4.88 (Std Dev. 1.13)"}
    ]},
    {"molecule": "CC[C@H](C)[C@@H]1NC(=O)[C@H](Cc2ccc(O)cc2)NC(=O)[C@@H](N)CSSC[C@@H](C(=O)N2CCC[C@H]2C(=O)N[C@@H](CC(C)C)C(=O)NCC(N)=O)NC(=O)[C@H](CC(N)=O)NC(=O)[C@H](CCC(N)=O)NC1=O", "note": "[oxytocin]", "values": [
      {"measurement": "Ca influx in human airway smooth muscle cells", "setting": "[2]; serum-starved HASMC, oxytocin 100 nM or 500 nM", "value": "induces Ca influx"}
    ]},
    {"molecule": "ovalbumin: allergen used to immunize and challenge mice in the acute asthma model", "values": [
      {"measurement": "Oxytocin Receptor mRNA in trachea compared to PBS control", "setting": "[3]", "value": 1.5, "unit": "fold"}
    ]}
  ]
}
